Laboratory results: the NIST ThermoML archive (doi:10.1021/je700287u)

Experiment: xn = mol fraction of the nth substance listed
Conditions: Liquid

CN(CCO)CCO [N-methyldiethanolamine] + O
Conditions | mass density [kg/m3]
313.12 K, 1001 kPa, x1 = 0.0369 | 1005.7
313.12 K, 2015 kPa, x1 = 0.0369 | 1006.1
313.12 K, 2986 kPa, x1 = 0.0369 | 1006.5
313.12 K, 3994 kPa, x1 = 0.0369 | 1006.9
313.12 K, 5003 kPa, x1 = 0.0369 | 1007.3
313.12 K, 6002 kPa, x1 = 0.0369 | 1007.7
313.12 K, 6994 kPa, x1 = 0.0369 | 1008.1
313.12 K, 7995 kPa, x1 = 0.0369 | 1008.5
313.12 K, 8996 kPa, x1 = 0.0369 | 1008.9
313.12 K, 9983 kPa, x1 = 0.0369 | 1009.3
313.12 K, 10989 kPa, x1 = 0.0369 | 1009.7
313.12 K, 11991 kPa, x1 = 0.0369 | 1010.1
313.12 K, 12991 kPa, x1 = 0.0369 | 1010.5
313.12 K, 13988 kPa, x1 = 0.0369 | 1010.9
313.12 K, 14989 kPa, x1 = 0.0369 | 1011.4
313.12 K, 15985 kPa, x1 = 0.0369 | 1011.7
313.12 K, 16984 kPa, x1 = 0.0369 | 1012.1
313.12 K, 17985 kPa, x1 = 0.0369 | 1012.5
313.12 K, 18989 kPa, x1 = 0.0369 | 1012.9
313.12 K, 19945 kPa, x1 = 0.0369 | 1013.3
313.13 K, 1003 kPa, x1 = 0.1302 | 1033.5
313.13 K, 1011 kPa, x1 = 0.0893 | 1025.9
313.13 K, 1993 kPa, x1 = 0.1302 | 1033.9
313.13 K, 1994 kPa, x1 = 0.0893 | 1026.2
313.13 K, 2999 kPa, x1 = 0.1302 | 1034.3
313.13 K, 3002 kPa, x1 = 0.0893 | 1026.6
313.13 K, 3994 kPa, x1 = 0.1302 | 1034.6
313.13 K, 3998 kPa, x1 = 0.0893 | 1027
313.13 K, 4984 kPa, x1 = 0.1302 | 1035
313.13 K, 4998 kPa, x1 = 0.0893 | 1027.4
313.13 K, 6001 kPa, x1 = 0.0893 | 1027.8
313.13 K, 6001 kPa, x1 = 0.1302 | 1035.4
313.13 K, 6993 kPa, x1 = 0.1302 | 1035.8
313.13 K, 6994 kPa, x1 = 0.0893 | 1028.1
313.13 K, 8000 kPa, x1 = 0.0893 | 1028.5
313.13 K, 8003 kPa, x1 = 0.1302 | 1036.1
313.13 K, 8996 kPa, x1 = 0.1302 | 1036.5
313.13 K, 8999 kPa, x1 = 0.0893 | 1028.9
313.13 K, 9989 kPa, x1 = 0.1302 | 1036.8
313.13 K, 9995 kPa, x1 = 0.0893 | 1029.2
313.13 K, 10983 kPa, x1 = 0.1302 | 1037.2
313.13 K, 10990 kPa, x1 = 0.0893 | 1029.6
313.13 K, 11992 kPa, x1 = 0.1302 | 1037.6
313.13 K, 12001 kPa, x1 = 0.0893 | 1030
313.13 K, 12980 kPa, x1 = 0.1302 | 1037.9
313.13 K, 12989 kPa, x1 = 0.0893 | 1030.3
313.13 K, 14000 kPa, x1 = 0.0893 | 1030.7
313.13 K, 14000 kPa, x1 = 0.1302 | 1038.3
313.13 K, 14999 kPa, x1 = 0.0893 | 1031.1
313.13 K, 15002 kPa, x1 = 0.1302 | 1038.7
313.13 K, 15995 kPa, x1 = 0.0893 | 1031.4
313.13 K, 16001 kPa, x1 = 0.1302 | 1039.1
313.13 K, 16998 kPa, x1 = 0.1302 | 1039.5
313.13 K, 17013 kPa, x1 = 0.0893 | 1031.8
313.13 K, 17991 kPa, x1 = 0.1302 | 1039.8
313.13 K, 17993 kPa, x1 = 0.0893 | 1032.2
313.13 K, 18991 kPa, x1 = 0.0893 | 1032.6
313.13 K, 18996 kPa, x1 = 0.1302 | 1040.2
313.13 K, 19990 kPa, x1 = 0.1302 | 1040.5
313.13 K, 19991 kPa, x1 = 0.0893 | 1032.9
313.14 K, 999 kPa, x1 = 0.0607 | 1018.1
313.14 K, 2000 kPa, x1 = 0.0607 | 1018.5
313.14 K, 3028 kPa, x1 = 0.0607 | 1018.9
313.14 K, 4020 kPa, x1 = 0.0607 | 1019.3
313.14 K, 5011 kPa, x1 = 0.0607 | 1019.7
313.14 K, 6015 kPa, x1 = 0.0607 | 1020.1
313.14 K, 7003 kPa, x1 = 0.0607 | 1020.4
313.14 K, 8009 kPa, x1 = 0.0607 | 1020.8
313.14 K, 9014 kPa, x1 = 0.0607 | 1021.2
313.14 K, 10000 kPa, x1 = 0.0607 | 1021.5
313.14 K, 10977 kPa, x1 = 0.0607 | 1022
313.14 K, 12029 kPa, x1 = 0.0607 | 1022.3
313.14 K, 13022 kPa, x1 = 0.0607 | 1022.7
313.14 K, 13988 kPa, x1 = 0.0607 | 1023
313.14 K, 15009 kPa, x1 = 0.0607 | 1023.4
313.14 K, 16003 kPa, x1 = 0.0607 | 1023.8
313.14 K, 16995 kPa, x1 = 0.0607 | 1024.2
313.14 K, 18007 kPa, x1 = 0.0607 | 1024.6
313.14 K, 19000 kPa, x1 = 0.0607 | 1024.9
313.14 K, 19950 kPa, x1 = 0.0607 | 1025.3
323.08 K, 1011 kPa, x1 = 0.0607 | 1012.5
323.08 K, 2015 kPa, x1 = 0.0607 | 1012.9
323.08 K, 3015 kPa, x1 = 0.0607 | 1013.2
323.08 K, 4025 kPa, x1 = 0.0607 | 1013.7
323.08 K, 4995 kPa, x1 = 0.0607 | 1014
323.08 K, 6015 kPa, x1 = 0.0607 | 1014.4
323.08 K, 7015 kPa, x1 = 0.0607 | 1014.8
323.08 K, 7992 kPa, x1 = 0.0607 | 1015.2
323.08 K, 9006 kPa, x1 = 0.0607 | 1015.6
323.08 K, 10014 kPa, x1 = 0.0607 | 1016
323.08 K, 11000 kPa, x1 = 0.0607 | 1016.3
323.08 K, 12064 kPa, x1 = 0.0607 | 1016.8
323.08 K, 13004 kPa, x1 = 0.0607 | 1017.1
323.08 K, 13990 kPa, x1 = 0.0607 | 1017.5
323.08 K, 14997 kPa, x1 = 0.0607 | 1017.9
323.08 K, 15999 kPa, x1 = 0.0607 | 1018.2
323.08 K, 16993 kPa, x1 = 0.0607 | 1018.6
323.08 K, 18008 kPa, x1 = 0.0607 | 1019
323.08 K, 19017 kPa, x1 = 0.0607 | 1019.4
323.08 K, 19961 kPa, x1 = 0.0607 | 1019.7
323.09 K, 1017 kPa, x1 = 0.1302 | 1026.6
323.09 K, 1034 kPa, x1 = 0.0369 | 1001.1
323.09 K, 2001 kPa, x1 = 0.1302 | 1027
323.09 K, 2004 kPa, x1 = 0.0369 | 1001.5
323.09 K, 2993 kPa, x1 = 0.0369 | 1001.9
